Assay results reported in patent US10189777B2, “Benzenesulfonamido and related compounds for use as agonists of RORγ and the treatment of disease” (Lycera Corporation, priority 2014, dated 2019).

Key:
[1] = biological target: T1, Gal4-RORγ-LBD (Homo sapiens, UniProt P51449); assay: Gal4-RORγ Luciferase Reporter Assay in HEK-293T Cells; type: cell-based; details: for EC50: HEK-293 cells, with 2 μM ursolic acid, incubated overnight, luciferase readout; for Gal4-RORγ Assay Max Response: upper plateau of 4-parameter fit, luciferase signal in the absence of ursolic acid or test compound defined at 100
T1 construct: expressed in transfected cells
T1 sequence (P51449 269-508 limits assumed): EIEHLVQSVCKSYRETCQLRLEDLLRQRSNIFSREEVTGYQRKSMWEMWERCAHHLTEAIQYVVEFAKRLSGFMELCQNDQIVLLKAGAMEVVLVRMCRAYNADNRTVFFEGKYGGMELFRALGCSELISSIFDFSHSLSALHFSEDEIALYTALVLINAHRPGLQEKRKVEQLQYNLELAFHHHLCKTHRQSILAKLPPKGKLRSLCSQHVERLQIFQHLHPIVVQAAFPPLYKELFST
Procedure: (§1) Exemplary compounds from the above Examples were tested for ability to increase RORγ activity using (i) a RORγ-Ligand Binding Domain (LBD) TR-FRET Assay, and (ii) a Gal4-RORγ Luciferase Reporter Assay in HEK-293T Cells. Assay procedures and results are described below.
Part II—Procedures for Gal4-RORγ Luciferase Reporter Assay in HEK-293T Cells
Transfection of HEK-293 Cells
In the following protocol, HEK-293 cells were transfected with a construct comprising the Gal4 DNA binding domain fused to the ligand binding domain of RORγ (Gal4-RORγ-LBD) in a pcDNA3.1neo plasmid, and also with a reporter construct comprising pGL4.31 Gal4-luciferase (Promega). Control cells were prepared similarly using empty pcDNA3.1neo and pGL4.31 vectors.
Trans-IT reagent (Mirus, 60 μL) at room temperature was added drop wise to OptiMEM (Invitrogen, 1.5 ml). This reagent mixture was mixed by inversion then incubated for 5 to 30 minutes at room temperature. It then was added to a solution of both expression vectors (5 μg each), mixed, and incubated at room temperature for about 20 minutes. HEK-293 cells were harvested from incubation flasks by removing the media, treating with TrypLE Express (Invitrogen), and incubating until the cells detached from the bottom of the flask (approximately 2-5 minutes). 10 Million cells were collected by centrifugation and re-suspended in 10 mL of Dulbecco's Modified Eagle Medium, High Glucose (DMEM, Invitrogen) containing 10% Fetal Bovine Serum and 100 IU each of penicillin and streptomycin. The re-suspended cells and the transfection mixture were added to a T75 flask, mixed and incubated overnight at 37° C. and 5% CO2.
The cells were harvested as described above, counted, and centrifuged to obtain the desired number of cells, then re-suspended in complete growth media at 0.75×10^6 cells/mL. The RORγ antagonist, ursolic acid, was added to the cells at a final concentration of 2 μM. Cells were plated at 20 μL of cell suspension/well (10,000-15,000 cells/well) in white tissue culture treated 384 well plates. Test compounds were dissolved at 10 mM in DMSO then diluted into complete growth medium to 5× the final intended test concentration. These drug stock solutions, 5 μL/well were added to the tissue culture plate. The final DMSO concentration was 0.2%. The plates were briefly centrifuged then incubated overnight at 37° C. and 5% CO2. To conduct the assay, the tissue culture plates were allowed to equilibrate to room temperature and One-Glo luciferase reagent (Promega, 25 μL/well) was added. The plates were briefly centrifuged then incubated at room temperature for 10 minutes. The luciferase intensity was read on an Envision plate reader (Perkin Elmer). RORγ activity was determined relative to controls and plotted as a function of test compound concentration using PRISM (GraphPad) to determine a 50% effective concentration (EC50). The luciferase signal in the absence of ursolic acid or test compound is defined at 100. The Max Response is the upper plateau in the signal as determined by line-fit using a 4-parameter logistic model in PRISM (GraphPad).

[2] = biological target: T2, HIS-tagged RORγ-LBD protein (Homo sapiens, UniProt P51449); assay: RORγ-Ligand Binding Domain (LBD) TR-FRET Assay; type: biochemical; details: for TR-FRET Assay Max Response: upper plateau of 4-parameter fit, signal in the absence of ursolic acid or test compound set as 100; for EC50: with 2 μM RORγ antagonist ursolic acid, biotinylated SRC1 LXXLL peptide, ratio 665 nm/615 nm
T2 construct: made in house; host or cells: SF9 cells, baculovirus expression system; the lysate was used
T2 sequence (P51449 269-508 limits assumed): T1 sequence (P51449 269-508 limits assumed)
Procedure: as §1
Part I—Procedures for RORγ-Ligand Binding Domain TR-FRET Assay
HIS-tagged RORγ-LBD protein was expressed in SF9 cells using a baculovirus expression system. The lysate was diluted in assay buffer (50 mM Tris pH 7.0, 50 mM KCl, 1 mM EDTA, 0.1 mM DTT, 0.01% BSA) to obtain RORγ-LBD final concentration of −3 nM in a 384-well assay plate (need to titrate for each batch of protein).
A stock of biotinylated-LXXLL peptide from coactivator SRC1 (Biotin-[…]) was prepared in assay buffer and added to each well (200 nM final concentration). A solution of Europium tagged anti-HIS antibody (0.6 nM final concentration) and APC-conjugated streptavidin (30 nM final concentration) were also added to each well. RORγ antagonist ursolic acid was also included at a final concentration of 2 μM. Compounds were diluted in DMSO and further diluted in assay buffer with a final DMSO concentration at 1%.
The final assay mixture was incubated overnight at 4° C. or 2 hours at room temperature, and the fluorescence signal was measured on an Envision plate reader: (Excitation filter=340 nm; APC emission=665 nm; Europium emission=615 nm; dichroic mirror=D400/D630; delay time=100 μs, integration time=200 μs). 50% Effective concentration (EC50) values for test compounds were calculated from the quotient of the fluorescence signal at 665 nm divided by the fluorescence signal at 615 nm. The quotient of the fluorescence signals in the absence of ursolic acid or test compound is set as 100. Max Response is defined as the upper plateau in the signal as determined by line-fit using a 4-parameter logistic model in PRISM (GraphPad).

| EC50 [1] | EC50 [2] | SMILES | Gal4-RORγ Assay Max Response [1] | TR-FRET Assay Max Response [2] |
| --- | --- | --- | --- | --- |
| > 10000 nM | < 500 nM | CCN(c1cccc(OC2CCc3cccc(F)c32)c1)S(=O)(=O)c1cccc(C(F)(F)F)c1 (stereo not shown) | **** (The symbol “****” indicates a value greater than 200) | *** (The symbol “***” indicates a value in the range of greater than 150 to 200) |
| 5000 to 10000 nM | < 500 nM | CCN(c1cccc(OC2CCc3cccc(Cl)c32)c1)S(=O)(=O)c1cccc(C(F)(F)F)c1 (stereo not shown) | *** (The symbol “***” indicates a value in the range of greater than 150 to 200) | *** (The symbol “***” indicates a value in the range of greater than 150 to 200) |
| 500 to 5000 nM | < 500 nM | CCN(c1cccc(OCc2c(Cl)cccc2Cl)c1)S(=O)(=O)c1cccc(C(F)(F)F)c1 | ** (The symbol “**” indicates a value in the range of greater than 90 to 150) | *** (The symbol “***” indicates a value in the range of greater than 150 to 200) |
| 500 to 5000 nM | 500 to 5000 nM | CCN(c1cccc(OCCc2c(Cl)cccc2Cl)c1)S(=O)(=O)c1cccc(C(F)(F)F)c1 | ** (The symbol “**” indicates a value in the range of greater than 90 to 150) | **** (The symbol “****” indicates a value greater than 200) |
| > 10000 nM | 500 to 5000 nM | CCN(c1cccc(OCCc2c(F)cccc2Cl)c1)S(=O)(=O)c1cccc(C(F)(F)F)c1 | ** (The symbol “**” indicates a value in the range of greater than 90 to 150) | *** (The symbol “***” indicates a value in the range of greater than 150 to 200) |
| 500 to 5000 nM | < 500 nM | CCN(c1cccc(OCc2c(F)cccc2C(F)(F)F)c1)S(=O)(=O)c1cccc(C(F)(F)F)c1 | ** (The symbol “**” indicates a value in the range of greater than 90 to 150) | **** (The symbol “****” indicates a value greater than 200) |
| > 10000 nM | < 500 nM | CCN(c1cccc(OCc2c(F)cccc2OC)c1)S(=O)(=O)c1cccc(C(F)(F)F)c1 | – | **** (The symbol “****” indicates a value greater than 200) |
| 5000 to 10000 nM | < 500 nM | CCN(c1cccc(OCc2cc(Cl)ccc2Cl)c1)S(=O)(=O)c1cccc(C(F)(F)F)c1 | *** (The symbol “***” indicates a value in the range of greater than 150 to 200) | **** (The symbol “****” indicates a value greater than 200) |
| 500 to 5000 nM | 500 to 5000 nM | CCN(c1cccc(OCc2ccccc2Cl)c1)S(=O)(=O)c1cccc(C(F)(F)F)c1 | ** (The symbol “**” indicates a value in the range of greater than 90 to 150) | **** (The symbol “****” indicates a value greater than 200) |
| > 10000 nM | 500 to 5000 nM | CCOc1nn(CC)cc1S(=O)(=O)N(CC)c1cccc(OC2CCc3ccccc32)c1 (stereo not shown) | – | **** (The symbol “****” indicates a value greater than 200) |
| 500 to 5000 nM | 500 to 5000 nM | CCOc1nn(CC)cc1S(=O)(=O)N(CC)c1cccc(OCc2c(F)cccc2Cl)c1 | ** (The symbol “**” indicates a value in the range of greater than 90 to 150) | **** (The symbol “****” indicates a value greater than 200) |
| 500 to 5000 nM | < 500 nM | CCN(c1cccc(NCc2ccccc2Cl)c1)S(=O)(=O)c1cccc(C(F)(F)F)c1 | ** (The symbol “**” indicates a value in the range of greater than 90 to 150) | **** (The symbol “****” indicates a value greater than 200) |
| < 500 nM | < 500 nM | CCC(c1ccc(OCc2c(F)cccc2Cl)cc1)S(=O)(=O)c1cccc(C(F)(F)F)c1 (stereo not shown) | ** (The symbol “**” indicates a value in the range of greater than 90 to 150) | *** (The symbol “***” indicates a value in the range of greater than 150 to 200) |
| 500 to 5000 nM | 5000 to 10000 nM | CCC(c1cccc(OCc2ccccc2)c1)S(=O)(=O)c1cccc(C(F)(F)F)c1 (stereo not shown) | * (The symbol “*” indicates a value in the range of 70 to 90) | ** (The symbol “**” indicates a value in the range of greater than 90 to 150) |
| 500 to 5000 nM | < 500 nM | CCC(c1ccc(OCc2c(F)cccc2Cl)cc1)S(=O)(=O)c1ccc(Cl)cc1 (stereo not shown) | * (The symbol “*” indicates a value in the range of 70 to 90) | *** (The symbol “***” indicates a value in the range of greater than 150 to 200) |
